In paper PMC10709007, “GPR162 is a beta cell CART receptor” (iScience, 2023):
“Also recorded” adds a separate entry of the source. Where no end group is shown, it is not given here.

What was measured:
GPR160 = experiment: Proximity ligation assay (PLA) CART-GPR160 in INS-1 832/13 cells; format: binding, rat; conditions: 10^-7M CARTp55-102, 15 minutes (Figure S3B), n = 8
Method: INS-1 832/13 cells were seeded in 8-well tissue culture chambers (Sarstedt, Nümbrecht, Germany). […] Cells were rinsed quickly in ice-cold 1XPBS and then washed twice with ice-cold PBS. Cells were then fixed for 20 min in 4% paraformaldehyde, washed 2 × 10 min in 1XPBS and permeabilized for 15 min in PBS +0.25% Triton X-100. Proximity ligation assay (PLA) (DuoLink In situ Red Starter Kit Goat/Rabbit, Sigma Aldrich) was performed according to the instructions provided by the manufacturers. The following antibody combinations were used for the PLA: goat anti-GPR162 (sc-138323, dilution 1:500, Santa Cruz) with rabbit anti-CART (code 2059A, dilution 1:5000, kindly provided by Dr. Jes T. Clausen, Novo Nordisk, Måløv, Denmark), and goat anti-CART (code sc-18068, dilution 1:400, Santa Cruz) with rabbit anti-GPR162 (code PA5-33655, dilution 1:500, Thermo Scientific). Anti-rabbit GPR160 (code PA5-33650) was combined with anti-goat CART (code sc-18068 from Santa Cruz). Anti-rabbit GNA13 (PA5-100644) was combined with anti-goat GPR162 (sc-138323). Negative controls were omission of both antibodies and the combination of the CART antibody with an antibody toward a receptor with a known ligand. […]

INS-1 832/13 cells [1] = experiment: Glucose-stimulated insulin secretion (GSIS) in INS-1 832/13; format: cell-based, rat; conditions: 10^-7M CARTp55-102 24 h before GSIS, 16.7 mM glucose, 10 μM IBMX
Method: GSIS was measured 72 h after Cartpt KD. INS-1 832/13 cells were washed twice and incubated for 2 h in 2.8 mM glucose HEPES-buffered saline solution (HBSS): 114 mM NaCl, 4.7 mM KCl, 1.2 mM KH2PO4, 1.16 mM MgSO4, 20 mM HEPES, 2.5 mM CaCl2, 25.5 mM NaHCO3, 0.2% BSA, pH 7.2, followed by 1-h stimulation in the same buffer containing 2.8 mM, 16.7 mM glucose, 16.7 mM glucose and 10 μM IBMX. In a separate experiment, control and Gpr162 KD cells were incubated with 10^−7M CARTp55-102 for 24 h before GSIS. Insulin concentrations in supernatant were determined using ELISA (Mercodia, Uppsala, Sweden) and were normalized to total protein content of each well (determined by Bio-Rad protein assay, BioRad).
Insulin from INS-1 832/13 cells and mouse islets were analyzed using ELISA (Mercodia).

INS-1 832/13 cells [2] = experiment: Actin staining (phalloidin) in INS-1 832/13 cells; format: cell-based, rat; conditions: 10^-7M CARTp55-102, 24 h, n = 6
Method: INS-1 832/13 cells (a rat insulinoma cell line of male origin) were cultured in RPMI 1640 medium (Sigma Aldrich, St. Louis, MO) containing 2 g/L D-glucose, supplemented with 10% FBS, 10 mM HEPES, 1 mM sodium pyruvate and 50 μM β-mercaptoethanol (Sigma Aldrich) in a humidified atmosphere (37°C, 5% CO2). For investigations of actin architecture, INS-1 832/13 cells were seeded in 8-well chamber slides (Sarstedt) and transfected as described below before being fixed, permeabilized and stained with phalloidin (Phalloidin-iFluor488, Abcam, Cambridge, UK) for 60 min. Nuclei were counter-stained with DAPI and F-actin was visualized using Phalloidin-iFluor488 (Abcam). Phalloidin staining was performed for 60 min at a dilution of 1:1000 (in PBS +0.25% Triton X-100). Phalloidin intensity was quantified using the ImageJ software.

rodent and human islets = conditions: in vivo and in vitro/ex vivo; cited from earlier work
From the text: However, much earlier, a fragment of the CART peptide was identified in extracts of sheep hypothalamus.[2] CART was later found to be expressed also in pancreatic islet cells and in nerve fibers innervating the islets.[3]^,[4]^,[5] […] Since then, multiple biological effects of CART have been established.[4]^,[7] […] However, the identity of the CART receptor mediating this effect in beta cells is unknown to date.[15] Here, we provide evidence for GPR162 as a CART receptor in beta cells.

PC-12 cells = conditions: RNA interference of Gpr160; cited from earlier work
From the text: (§1) When studying neuropathic pain, Yosten et al.[11] found GPR160 to be necessary for CARTp-mediated cell activation in cell culture. […] However, whether GPR160 is a receptor for CART in the b ...

[3] = test system: dorsal horn of the spinal cord; conditions: intrathecal injections; cited from earlier work
From the text: as §1

AtT20 = conditions: exogenous CART; cited from earlier work
From the text: (§2) GPR162 was identified as the most CART-affected orphan receptor in INS-1 832/13 cells. […] By showing that CART binds to GPR162 and that biological effects of CART are reduced or ablated after Gpr162 KD, we propose that GPR162 acts as a CART receptor in beta cells. We also established expression of GPR162 in a majority of human and mouse beta cells. Moderate GPR162 immunoreactivity was evident across the cytoplasm and more intense immunoreact ...

INS-1 832/13 cells [4] = conditions: cited from earlier work
From the text: as §2

beta cells in islets = conditions: between beta cells within same islet; cited from earlier work
From the text: Our observation that CART affects cytoskeletal rearrangement is novel. Without doubt, the actin network is of great importance for properly functioning insulin secretion.[34]^,[35]^,[36]^,[37] In the present study, a large number of genes involved in cytoskeletal rearrangement were affected by both Cartpt KD and Gpr162 KD. […] Furthermore, Cartpt KD also affects genes crucial for regulation of exocytosis,[14] a process indeed dependent on ...

CARTp55-102: Rat, mouse CARTp55-102 (Phoenix Pharmaceuticals, Cat#003-62); human form Cat#003-60; cocaine- and amphetamine-regulated transcript peptide (IPIYEKKYGQVPMCDAGEQCAVRKGARIGKLCDCPRGTSCNSFLLKCL; ends and bridges not checked; cysteine pairing not given here)
CART-GPR160 interaction (PLA) (GPR160): no | CART-GPR160 interaction (PLA) (GPR160; listed as CART): failed to detect | Insulinotropic effect of CARTp55-102 on glucose and IBMX-stimulated secretion in Gpr162 KD cells (INS-1 832/13 cells [1]; n = 6): abolished | Insulinotropic effect of CARTp55-102 on glucose and IBMX-stimulated secretion in Gpr162 KD cells (INS-1 832/13 cells [1]; n = 6, listed as CART): near-complete abolishment | Effect of CARTp on actin staining in Gpr162 KD cells (INS-1 832/13 cells [2]; listed as CART): near-complete abolishment | Effect of CARTp on actin staining in Gpr162 KD cells (INS-1 832/13 cells [2]; listed as CARTp): without effect; also recorded: lost in Gpr162 KD cells | Increase in actin staining (INS-1 832/13 cells [2]; control cells, phalloidin): approximately 2 -fold | Glucagon secretion (rodent and human islets): reduces glucagon secretion | Insulin secretion (rodent and human islets): increases insulin secretion | ERK phosphorylation after Gpr160 RNA interference (PC-12 cells): RNA interference of Gpr160 prevented CART from activating c-FOS expression and phosphorylation of ERK in vitro in KATO III cells and PC-12 cells, respectively | Phosphorylation of ERK and CREB [3]: induced phosphorylation of ERK and CREB | Activation of AtT20 (AtT20): capable of activating AtT20 | cAMP (INS-1 832/13 cells [4]): increase cAMP | Synchronization of Ca2+ oscillations (beta cells in islets): increased synchronization of Ca^2+ oscillations
